In the supplement of paper PMC13207355:
Counter-ions that a name gives are not always drawn.

Experiments:
Conditions in all cases: exposure time: 72 h
E13 [1] = patient-derived glioblastoma stem cells of classical subtype; assay: surviving fraction (nuclei count normalised to DMSO); higher = more cells surviving (less toxic)
E21 [2] = patient-derived glioblastoma stem cells of mesenchymal subtype; assay: as above
E28 [3] = patient-derived glioblastoma stem cells of classical subtype; assay: as above
E31 [4] = patient-derived glioblastoma stem cells of proneural subtype; assay: as above
E34 [5] = patient-derived glioblastoma stem cells of proneural subtype; assay: as above
E57 [6] = patient-derived glioblastoma stem cells of mesenchymal subtype; assay: as above
FT3469 [7] = normal neural stem cell line; assay: as above
E13 [8] = assay: phenotypic distance (Euclidean, principal components) from DMSO controls (arbitrary units); higher = stronger morphological change
E21 [9] = assay: as above
E28 [10] = assay: as above
E31 [11] = assay: as above
E34 [12] = assay: as above
E57 [13] = assay: as above
FT3469 [14] = assay: as above
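Wherever phenotypic distance (Euclidean, principal components) from DMSO controls is given: cell Painting imaging in 384-well plates, CellProfiler features reduced to at least 20 principal components, Euclidean distance versus same-plate DMSO vehicle wells (0.1% v/v), median over six images per well.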
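Wherever surviving fraction (nuclei count normalised to DMSO) is given: nuclei counted by high-content imaging of Hoechst-stained cells in laminin-coated 384-well plates, relative to 0.1% DMSO vehicle wells, with staurosporine as cell-death control.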

C#C[C@]1(O)CC[C@H]2[C@@H]3CCC4=CCCC[C@@H]4[C@H]3CC[C@@]21C [Lynestrenol]
Conditions | phenotypic distance | surviving fraction
E13 [1], 4.1 nM | – | 0.994
E13 [1], 12.3 nM | – | 0.901
E13 [1], 37 nM | – | 1.03
E13 [1], 111.1 nM | – | 1.05
E13 [1], 333.3 nM | – | 1.03
E13 [1], 1000 nM | – | 1.04
E13 [1], 3000 nM | – | 0.88
E13 [8], 4.1 nM | 0.399 | –
E13 [8], 12.3 nM | 0.621 | –
E13 [8], 37 nM | 0.422 | –
E13 [8], 111.1 nM | 0.821 | –
E13 [8], 333.3 nM | 0.697 | –
E13 [8], 1000 nM | 0.59 | –
E13 [8], 3000 nM | 1.03 | –
E21 [2], 4.1 nM | – | 1.03
E21 [2], 12.3 nM | – | 0.998
E21 [2], 37 nM | – | 1.01
E21 [2], 111.1 nM | – | 1.08
E21 [2], 333.3 nM | – | 1.07
E21 [2], 1000 nM | – | 0.975
E21 [2], 3000 nM | – | 1.08
E21 [9], 4.1 nM | 0.397 | –
E21 [9], 12.3 nM | 0.584 | –
E21 [9], 37 nM | 0.589 | –
E21 [9], 111.1 nM | 0.676 | –
E21 [9], 333.3 nM | 0.662 | –
E21 [9], 1000 nM | 0.692 | –
E21 [9], 3000 nM | 1.35 | –
E28 [3], 4.1 nM | – | 1.06
E28 [3], 12.3 nM | – | 1.05
E28 [3], 37 nM | – | 0.924
E28 [3], 111.1 nM | – | 1.04
E28 [3], 333.3 nM | – | 1.09
E28 [3], 1000 nM | – | 1.16
E28 [3], 3000 nM | – | 1.16
E28 [10], 4.1 nM | 0.488 | –
E28 [10], 12.3 nM | 0.735 | –
E28 [10], 37 nM | 0.493 | –
E28 [10], 111.1 nM | 0.306 | –
E28 [10], 333.3 nM | 0.694 | –
E28 [10], 1000 nM | 0.828 | –
E28 [10], 3000 nM | 0.566 | –
E31 [4], 4.1 nM | – | 0.991
E31 [4], 12.3 nM | – | 1.12
E31 [4], 37 nM | – | 0.813
E31 [4], 111.1 nM | – | 1.26
E31 [4], 333.3 nM | – | 0.895
E31 [4], 1000 nM | – | 1.07
E31 [4], 3000 nM | – | 1.09
E31 [11], 4.1 nM | 0.539 | –
E31 [11], 12.3 nM | 0.803 | –
E31 [11], 37 nM | 0.671 | –
E31 [11], 111.1 nM | 0.989 | –
E31 [11], 333.3 nM | 0.806 | –
E31 [11], 1000 nM | 0.394 | –
E31 [11], 3000 nM | 1.33 | –
E34 [5], 4.1 nM | – | 0.966
E34 [5], 12.3 nM | – | 0.988
E34 [5], 37 nM | – | 0.917
E34 [5], 111.1 nM | – | 1.24
E34 [5], 333.3 nM | – | 1.03
E34 [5], 1000 nM | – | 0.979
E34 [5], 3000 nM | – | 0.946
E34 [12], 4.1 nM | 0.505 | –
E34 [12], 12.3 nM | 0.89 | –
E34 [12], 37 nM | 0.743 | –
E34 [12], 111.1 nM | 0.994 | –
E34 [12], 333.3 nM | 0.472 | –
E34 [12], 1000 nM | 0.846 | –
E34 [12], 3000 nM | 0.609 | –
E57 [6], 4.1 nM | – | 1.2
E57 [6], 12.3 nM | – | 1.03
E57 [6], 37 nM | – | 1.04
E57 [6], 111.1 nM | – | 1.06
E57 [6], 333.3 nM | – | 1.08
E57 [6], 1000 nM | – | 1.17
E57 [6], 3000 nM | – | 1.08
E57 [13], 4.1 nM | 0.911 | –
E57 [13], 12.3 nM | 0.621 | –
E57 [13], 37 nM | 0.561 | –
E57 [13], 111.1 nM | 0.889 | –
E57 [13], 333.3 nM | 0.765 | –
E57 [13], 1000 nM | 0.843 | –
E57 [13], 3000 nM | 0.439 | –
FT3469 [7], 4.1 nM | – | 1.1
FT3469 [7], 12.3 nM | – | 1.19
FT3469 [7], 37 nM | – | 0.984
FT3469 [7], 111.1 nM | – | 1.26
FT3469 [7], 333.3 nM | – | 1.07
FT3469 [7], 1000 nM | – | 1.13
FT3469 [7], 3000 nM | – | 1.06
FT3469 [14], 4.1 nM | 0.64 | –
FT3469 [14], 12.3 nM | 1.14 | –
FT3469 [14], 37 nM | 0.738 | –
FT3469 [14], 111.1 nM | 1.23 | –
FT3469 [14], 333.3 nM | 0.567 | –
FT3469 [14], 1000 nM | 0.796 | –
FT3469 [14], 3000 nM | 0.874 | –

CC(C)NCC(O)c1cc(O)cc(O)c1 (stereo unspecified) [Metaproterenol sulfate, orciprenaline sulfate]
Conditions | phenotypic distance | surviving fraction
E13 [1], 4.1 nM | – | 0.979
E13 [1], 12.3 nM | – | 0.957
E13 [1], 37 nM | – | 1.06
E13 [1], 111.1 nM | – | 0.933
E13 [1], 333.3 nM | – | 1.06
E13 [1], 1000 nM | – | 0.995
E13 [1], 3000 nM | – | 1.06
E13 [8], 4.1 nM | 0.452 | –
E13 [8], 12.3 nM | 0.546 | –
E13 [8], 37 nM | 0.581 | –
E13 [8], 111.1 nM | 0.458 | –
E13 [8], 333.3 nM | 0.743 | –
E13 [8], 1000 nM | 0.439 | –
E13 [8], 3000 nM | 0.72 | –
E21 [2], 4.1 nM | – | 1
E21 [2], 12.3 nM | – | 0.995
E21 [2], 37 nM | – | 1.01
E21 [2], 111.1 nM | – | 1.05
E21 [2], 333.3 nM | – | 1.13
E21 [2], 1000 nM | – | 1.02
E21 [2], 3000 nM | – | 1.07
E21 [9], 4.1 nM | 0.506 | –
E21 [9], 12.3 nM | 0.541 | –
E21 [9], 37 nM | 0.821 | –
E21 [9], 111.1 nM | 2.96 | –
E21 [9], 333.3 nM | 0.869 | –
E21 [9], 1000 nM | 0.684 | –
E21 [9], 3000 nM | 0.751 | –
E28 [3], 4.1 nM | – | 1.2
E28 [3], 12.3 nM | – | 1.1
E28 [3], 37 nM | – | 1.06
E28 [3], 111.1 nM | – | 1.14
E28 [3], 333.3 nM | – | 1.21
E28 [3], 1000 nM | – | 1.04
E28 [3], 3000 nM | – | 1.13
E28 [10], 4.1 nM | 0.775 | –
E28 [10], 12.3 nM | 0.464 | –
E28 [10], 37 nM | 0.677 | –
E28 [10], 111.1 nM | 0.689 | –
E28 [10], 333.3 nM | 1.06 | –
E28 [10], 1000 nM | 0.558 | –
E28 [10], 3000 nM | 0.934 | –
E31 [4], 4.1 nM | – | 0.982
E31 [4], 12.3 nM | – | 1.02
E31 [4], 37 nM | – | 0.984
E31 [4], 111.1 nM | – | 1.14
E31 [4], 333.3 nM | – | 1.02
E31 [4], 1000 nM | – | 1.13
E31 [4], 3000 nM | – | 1.03
E31 [11], 4.1 nM | 0.663 | –
E31 [11], 12.3 nM | 0.455 | –
E31 [11], 37 nM | 0.562 | –
E31 [11], 111.1 nM | 0.625 | –
E31 [11], 333.3 nM | 0.672 | –
E31 [11], 1000 nM | 0.447 | –
E31 [11], 3000 nM | 0.615 | –
E34 [5], 4.1 nM | – | 0.922
E34 [5], 12.3 nM | – | 1.02
E34 [5], 37 nM | – | 1.04
E34 [5], 111.1 nM | – | 0.924
E34 [5], 333.3 nM | – | 1.02
E34 [5], 1000 nM | – | 1.24
E34 [5], 3000 nM | – | 0.961
E34 [12], 4.1 nM | 0.654 | –
E34 [12], 12.3 nM | 0.671 | –
E34 [12], 37 nM | 0.473 | –
E34 [12], 111.1 nM | 0.805 | –
E34 [12], 333.3 nM | 0.747 | –
E34 [12], 1000 nM | 0.882 | –
E34 [12], 3000 nM | 0.769 | –
E57 [6], 4.1 nM | – | 1.18
E57 [6], 12.3 nM | – | 1.11
E57 [6], 37 nM | – | 1.14
E57 [6], 111.1 nM | – | 0.953
E57 [6], 333.3 nM | – | 1.07
E57 [6], 1000 nM | – | 1.18
E57 [6], 3000 nM | – | 1.02
E57 [13], 4.1 nM | 0.966 | –
E57 [13], 12.3 nM | 0.872 | –
E57 [13], 37 nM | 0.874 | –
E57 [13], 111.1 nM | 0.737 | –
E57 [13], 333.3 nM | 1 | –
E57 [13], 1000 nM | 0.774 | –
E57 [13], 3000 nM | 0.716 | –
FT3469 [7], 4.1 nM | – | 1.18
FT3469 [7], 12.3 nM | – | 1.32
FT3469 [7], 37 nM | – | 1.05
FT3469 [7], 111.1 nM | – | 1.14
FT3469 [7], 333.3 nM | – | 1.13
FT3469 [7], 1000 nM | – | 1.04
FT3469 [7], 3000 nM | – | 1.22
FT3469 [14], 4.1 nM | 1.07 | –
FT3469 [14], 12.3 nM | 1.13 | –
FT3469 [14], 37 nM | 0.697 | –
FT3469 [14], 111.1 nM | 0.559 | –
FT3469 [14], 333.3 nM | 0.916 | –
FT3469 [14], 1000 nM | 1.01 | –
FT3469 [14], 3000 nM | 1.08 | –
